Experimental data taken from US6946458B2, “N-thiolated beta-lactams: novel antibacterial agents for methicillin-resistant Staphylococcus aureus” (University of South Florida, priority 1999, dated 2005).

Experiments:
MRSA USF655 = test: Kirby-Bauer agar disk diffusion; assay type: cell-based, Staphylococcus aureus; settings: for zone of growth inhibition, average diameter: Table 1, 6-mm disks, 20 μg test compound, 24 h, triplicate
Protocol: (§1) In this study, a selection of N-methylthio-substituted β-lactams are examined for antimicrobial activity by the Kirby-Bauer disk diffusion method on agar plates. A variety of common Gram-positive and Gram-negative bacteria are tested, including clinical isolates of methicillin-resistant Staphylococcus aureus (MRSA).
(§2) Compound susceptibility measurements are obtained from agar disk diffusion experiments using 6-mm air-dried disks impregnated with 20 μg of the test compound. The values correspond to the average diameters in mm (triplicate experiments) for the zone of growth inhibition observed after 24 h. Staphylococcus aureus (ATCC 25923) and β-lactamase-producing strains of methicillin-resistant Staphylococcus aureus (labeled as MRSA USF652-659) are obtained from Lakeland Regional Medical Center, Lakeland, Fla. Staphylococcus epidermidis, Staphylococcus simulans, Staphylococcus simulans, and Microcossus luteus are clinical isolates from University of South Florida Medical Clinic. Nieserria gonnorhoeae (β-lactamase positive) is obtained from the Tampa Branch State Laboratory. PenG is penicillin G (potassium salt). Table 1 provides the zones of growth inhibition that are observed after 24 hours using the lactams of FIGS. 1A-1I (designated A-I, respectively).
(§3) Of particular interest is the ability of these compounds to retain their effectiveness against penicillin-resistant strains of Staphylococcus aureus, a dangerous hospital-borne pathogen which is becoming difficult to treat with conventional antibiotic therapy. The lactams were screened for antibacterial activity by disk diffusion on agar plates, and the resulting zones of bacterial growth inhibition measured (see Table 3; each lactam is designated by Figure number).
(§4) Table 3: Growth inhibition zones obtained from agar disk diffusion experiments using 6-mm air-dried disks impregnated with 20 μg of the test compound. The values correspond to the average diameters in mm for the zone of growth inhibition observed after 24 hours. Staphylococcus aureus and β-lactamase-producing strains of methicillin-resistant Staphylococcus aureus (labeled MRSA USF652-659) are obtained from a clinical testing laboratory at Lakeland Regional Medical Center, Lakeland, Fla.
(§5) Those compounds were tested for bioactivity using the Kirby-Bauer test on agar plates.
(§6) Biological activity is enhanced against β-lactamase producing strains of methicillin-resistant Staphylococcus aureus (MRSA). With the lactam shown in FIG. 11A serving as a lead structure, a series of other C-4 substituted derivatives (FIGS. 11B-11I) were investigated herein. Table 5 lists microbiological data for β-lactams from Kirby-Bauer Disc Diffusion Test Results (with each lactam identified by Figure number).
(§7) Scheme I summarizes the synthesis of ester compounds 4. 4-Carboxy benzaldehyde (1) is coupled with the appropriate alcohol using DCC/DMAP, followed by reaction with p-anisidine, to give imines 2. Staudinger coupling of methoxyacetyl chloride with imine 2 gives N-aryl protected β-lactam 3. N-Dearylation of β-lactam 3 with ceric ammonium nitrate and methylthiolation with N-(methylthio)phthalimide affords N-methylthio β-lactams 4. These compounds are tested for antibacterial activity by the Kirby-Bauer method of disc diffusion on agar plates. [drawing 7]

MRSA USF657 = test: Kirby-Bauer agar disk diffusion; assay type: cell-based, Staphylococcus aureus; settings: for zone of growth inhibition, average diameter: Table 1, 6-mm disks, 20 μg test compound, 24 h, triplicate
Protocol: as §1, §2, §3, §4, §5, §6, §7

MRSA USF656 = test: Kirby-Bauer agar disk diffusion; assay type: cell-based, Staphylococcus aureus; settings: for zone of growth inhibition, average diameter: Table 1, 6-mm disks, 20 μg test compound, 24 h, triplicate
Protocol: as §1, §2, §3, §4, §5, §6, §7

MRSA USF652 = test: Kirby-Bauer agar disk diffusion; assay type: cell-based, Staphylococcus aureus; settings: for zone of growth inhibition, average diameter: Table 1, 6-mm disks, 20 μg test compound, 24 h, triplicate
Protocol: as §1, §2, §3, §4, §5, §6, §7

MRSA USF654 = test: Kirby-Bauer agar disk diffusion; assay type: cell-based, Staphylococcus aureus; settings: for zone of growth inhibition, average diameter: Table 1, 6-mm disks, 20 μg test compound, 24 h, triplicate
Protocol: as §1, §2, §3, §4, §5, §6, §7

MRSA USF658 = test: Kirby-Bauer agar disk diffusion; assay type: cell-based, Staphylococcus aureus; settings: for zone of growth inhibition, average diameter: Table 1, 6-mm disks, 20 μg test compound, 24 h, triplicate
Protocol: as §1, §2, §3, §4, §5, §6, §7

MRSA USF653 = test: Kirby-Bauer agar disk diffusion; assay type: cell-based, Staphylococcus aureus; settings: for zone of growth inhibition, average diameter: Table 1, 6-mm disks, 20 μg test compound, 24 h, triplicate
Protocol: as §1, §2, §3, §4, §5, §6, §7

MRSA USF659 = test: Kirby-Bauer agar disk diffusion; assay type: cell-based, Staphylococcus aureus; settings: for zone of growth inhibition, average diameter: Table 1, 6-mm disks, 20 μg test compound, 24 h, triplicate
Protocol: as §1, §2, §3, §4, §5, §6, §7

S. simulans (ATCC 11631) = test: Kirby-Bauer agar disk diffusion; assay type: cell-based, Staphylococcus simulans; settings: Table 1; 6-mm disks, 20 μg test compound, 24 h, triplicate
Protocol: as §1, §2, §3, §4

N. gonorrhoeae = test: Kirby-Bauer agar disk diffusion; assay type: cell-based, Neisseria gonorrhoeae; settings: Table 1; 6-mm disks, 20 μg test compound, 24 h, triplicate; β-lactamase positive
Protocol: as §1, §2

[1] = test system: S. saprophyticus (ATCC 3552); test: Kirby-Bauer agar disk diffusion; assay type: cell-based, Staphylococcus saprophyticus; settings: Table 1; 6-mm disks, 20 μg test compound, 24 h, triplicate
Protocol: as §1, §2, §3, §4

[2] = test system: Staphylococcus epidermidis; test: Kirby-Bauer agar disk diffusion; assay type: cell-based; settings: Table 1; 6-mm disks, 20 μg test compound, 24 h, triplicate
Protocol: as §1, §2, §3, §4

Micrococcus luteus = test: Kirby-Bauer agar disk diffusion; assay type: cell-based; settings: Table 1; 6-mm disks, 20 μg test compound, 24 h, triplicate
Protocol: as §1, §2, §3, §4

[3] = test system: Staphylococcus aureus (ATCC 25923); test: Kirby-Bauer agar disk diffusion; assay type: cell-based; settings: Table 1; 6-mm disks, 20 μg test compound, 24 h, triplicate
Protocol: as §1, §2, §3, §4

[4] = test system: Staphylococcus strains including MRSA; test: antibacterial activity screening, results stated in words; assay type: cell-based, Staphylococcus aureus
Source text: However, the N-alkylthio substituent is required, since reduction to the N—H analogue completely destroys the biological activity. […]
as §3
With the lactam of FIG. 6A serving as a lead structure, other C4-unsaturated derivatives (FIGS. 6B-6E) and C4-saturated analogues (FIGS. 6F-6H), were examined all of which also have activity against Staphylococcus strains including MRSA.
as §7

Row | SMILES | zone of growth inhibition, average diameter (MRSA USF655) [mm] | zone of growth inhibition, average diameter (MRSA USF657) [mm] | zone of growth inhibition, average diameter (MRSA USF656) [mm] | zone of growth inhibition, average diameter (MRSA USF652) [mm] | zone of growth inhibition, average diameter (MRSA USF654) [mm] | zone of growth inhibition, average diameter (MRSA USF658) [mm] | zone of growth inhibition, average diameter (MRSA USF653) [mm] | zone of growth inhibition, average diameter (MRSA USF659) [mm] | zone of growth inhibition, average diameter (S. simulans (ATCC 11631)) [mm] | zone of growth inhibition, average diameter (N. gonorrhoeae) [mm] | zone of growth inhibition, average diameter [1] [mm] | zone of growth inhibition, average diameter [2] [mm] | zone of growth inhibition, average diameter (Micrococcus luteus) [mm] | zone of growth inhibition, average diameter [3] [mm] | antibacterial activity, in words ([4]; Example 3 SAR) | further results
1 | COC1C(=O)N(SC)C1c1ccc(C#N)cc1 (racemic) [Lactam G] | 12 | 10 | 13 | 14 | 12 | 12 | 16 | 12 | 0 | 12 | 14 | 20 | 21 | 14 |  | 
2 | COC1C(=O)N(SC)C1c1cccs1 (racemic) [Lactam I] | 29 | 26 | 28 | 28 | 27 | 26 | 28 | 24 | 0 | 11 | 20 | 28 | 15 | 27 |  | 
3 | CCCCCCCCCCOC(=O)c1ccc(C2C(OC)C(=O)N2SC)cc1 (racemic) [FIG. 8E] |  |  |  |  |  |  |  |  |  |  |  |  |  |  | totally devoid of activity | 
4 | COC(=O)c1ccc(C2C(OC)C(=O)N2SC)cc1 (racemic) [Lactam F] | 14 | 12 | 11 | 12 | 12 | 12 | 14 | 13 | 0 | 11 | 8 | 12 | 20 | 12 |  | 
5 | COC(=O)c1ccc(C2C(OC)C(=O)N2SC)cc1 (racemic) [4a] |  |  |  |  |  |  |  |  |  |  |  |  |  |  |  | The Zone of Inhibition (MRSA USF655; Table 6, 20 μg disk loading): 14 mm; The Zone of Inhibition (MRSA USF657; Table 6, 20 μg disk loading): 12 mm; The Zone of Inhibition (MRSA USF656; Table 6, 20 μg disk loading): 11 mm; The Zone of Inhibition (MRSA USF652; Table 6, 20 μg disk loading): 12 mm; The Zone of Inhibition (MRSA USF654; Table 6, 20 μg disk loading): 8 mm; The Zone of Inhibition (MRSA USF658; Table 6, 20 μg disk loading): 9 mm; The Zone of Inhibition (MRSA USF653; Table 6, 20 μg disk loading): 14 mm; The Zone of Inhibition (MRSA USF659; Table 6, 20 μg disk loading): 13 mm; antibacterial activity, in words ([4]; Example 6, MRSA strains of Table 6): about similar activity
6 | COC1C(=O)N(SC)C1c1ccccc1 (racemic) [FIG. 6J] |  |  |  |  |  |  |  |  |  |  |  |  |  |  | highly active | 
7 | CCCCCOC(=O)c1ccc(C2C(OC)C(=O)N2SC)cc1 (racemic) [FIG. 8C] |  |  |  |  |  |  |  |  |  |  |  |  |  |  | activity is maintained | 
8 | COC(=O)c1ccc(C2C(OC)C(=O)N2SC)cc1 (racemic) [FIG. 7J] |  |  |  |  |  |  |  |  |  |  |  |  |  |  | showing antibacterial activity | 
